Measured values from patent US10272133B2, “Compositions and methods for treating and preventing hyperlipidemia, fatty liver, atherosclerosis and other disorders associated with metabolic syndrome” (VANDERBILT UNIVERSITY, priority 2011, dated 2019).
Converted amounts (≈) assume the structure as drawn. Where two headings read alike, the source gives them in different places. Bridge positions count the residues as written; N and C are the ends. Ends that are not written are not given here. Peptide text beside a SMILES is read from it.

Columns and labels:
[1] = test system: importins alpha 1, 4, and 5; test: Importins pull-down assay, Jurkat T cell extract; format: binding, human; details: biotinylated peptide, Jurkat T cell lysate pull-down
Experimental: (§1) Cell-penetrating peptide cSN50.1 (2986 Da) and other peptides listed in Table 1 were synthesized and prepared as previously described (Liu, D., et al., (2009) Mol Ther 17, 796-802). Biotinylated NTM peptides and their constituent modules were prepared in the same manner, with biotin added to the amino terminus at the last step of synthesis. When necessary, a 5-7 hydrophilic amino acid tag was added to peptide modules to facilitate solubility. For i.p. administration, 200 μl aliquots containing 0.4 or 0.7 mg of cSN50.1 in saline was injected at 8 h or 12 h intervals. Alternatively, 10 mg cSN50.1 in 100 μl sterile H2O was administered subcutaneously from ALZET Osmotic Pumps (1007D) placed aseptically in interscapular areas. A bolus of 0.7 mg cSN50.1 in 100 μl saline was administered i.p. at weekly pump changes to assure steady NTM bioavailability. Dosage schedules were developed based on previous experimental protocols and half-life studies. Control mice received sterile saline in the same volumes as NTM. Importins pull-down assay. Ten nmols of biotinylated NTM peptides or their constituent modules depicted in Table 1 (SN50, cSN50.1, N50, cN50.1, SSHR-1, SSHR-2) were incubated overnight at 4° C. with 1.5 mg of whole cell extract from unstimulated human Jurkat T cells or serum-starved human HepG2 cells lysed in binding buffer (10 mM HEPES at pH 7.9, 150 mM NaCl, 10 mM KCl, 2.5 mM MgCl2, 1 mM EGTA, 1 mM DTT, 0.1% NP-40, 1% protease inhibitor cocktail). Lysate was cleared by centrifugation (16,000×g for 30 min at 4° C.) and transferred to a fresh tube containing high capacity Neutravidin beads (Thermo Scientific). After 4 h, beads were separated from lysate/peptide mixture by centrifugation (30 s at 1,000×g) and washed 3 times with binding buffer and 2 times with PBS. Beads were boiled for 10 min in SDS loading buffer, and protein content was analyzed by immunoblotting with a panel of anti-importins alpha and beta antibodies and anti-GAPDH (Abcam) as a cellular protein control.

[2] = biological target: T1, importin beta (Homo sapiens, UniProt Q14974); test: Importins pull-down assay, Jurkat T cell extract; format: binding; parameters: whole cell extract from unstimulated human Jurkat T cells; endogenous in cells; host or cells: human Jurkat T cells, whole-cell extract; details: biotinylated peptide, Jurkat T cell lysate pull-down
T1 sequence (Q14974 whole entry): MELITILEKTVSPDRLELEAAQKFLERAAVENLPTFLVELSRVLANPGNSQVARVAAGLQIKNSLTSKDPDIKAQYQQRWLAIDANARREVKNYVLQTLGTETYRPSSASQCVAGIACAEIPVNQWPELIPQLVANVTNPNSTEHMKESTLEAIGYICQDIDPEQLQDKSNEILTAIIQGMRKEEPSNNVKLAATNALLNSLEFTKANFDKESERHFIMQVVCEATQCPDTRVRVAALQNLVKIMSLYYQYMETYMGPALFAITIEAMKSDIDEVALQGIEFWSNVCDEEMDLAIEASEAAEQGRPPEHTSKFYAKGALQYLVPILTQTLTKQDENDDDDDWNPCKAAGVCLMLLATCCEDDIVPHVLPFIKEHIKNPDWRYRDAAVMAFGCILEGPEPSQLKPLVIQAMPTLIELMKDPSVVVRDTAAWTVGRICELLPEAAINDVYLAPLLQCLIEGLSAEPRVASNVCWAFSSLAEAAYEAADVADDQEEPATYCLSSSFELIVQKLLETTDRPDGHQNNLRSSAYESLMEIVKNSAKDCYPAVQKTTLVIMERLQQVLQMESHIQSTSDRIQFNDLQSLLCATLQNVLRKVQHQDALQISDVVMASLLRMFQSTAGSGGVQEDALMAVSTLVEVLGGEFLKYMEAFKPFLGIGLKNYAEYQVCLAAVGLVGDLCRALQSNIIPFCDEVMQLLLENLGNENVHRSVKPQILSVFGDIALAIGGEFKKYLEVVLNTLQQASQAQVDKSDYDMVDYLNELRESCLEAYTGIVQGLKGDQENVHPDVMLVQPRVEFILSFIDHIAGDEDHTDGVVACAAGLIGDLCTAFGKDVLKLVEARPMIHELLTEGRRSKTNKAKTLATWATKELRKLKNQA
Experimental: as §1

[3] = biological target: T2, GAPDH (Homo sapiens, UniProt P04406); test: Importins pull-down assay, HepG2 cell extract, control protein; format: binding; parameters: endogenous in cells; host or cells: human hepatoma HepG2 cells, starved overnight in 1% FBS, whole-cell extract; details: HepG2 cell extracts
T2 sequence (P04406 whole entry): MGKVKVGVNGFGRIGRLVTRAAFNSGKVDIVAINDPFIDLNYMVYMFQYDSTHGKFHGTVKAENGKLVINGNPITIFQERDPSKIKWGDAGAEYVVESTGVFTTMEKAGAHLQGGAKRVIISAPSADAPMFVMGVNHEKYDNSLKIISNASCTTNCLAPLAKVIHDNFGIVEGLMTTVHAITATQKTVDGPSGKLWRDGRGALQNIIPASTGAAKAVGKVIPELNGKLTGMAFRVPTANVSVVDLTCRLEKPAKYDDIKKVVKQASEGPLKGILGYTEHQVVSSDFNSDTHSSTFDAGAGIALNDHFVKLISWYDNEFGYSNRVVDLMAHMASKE
Experimental: (§2) Cell-penetrating peptide cSN50.1 (2986 Da) and other peptides listed in Table 1 were synthesized and prepared as previously described (Liu, D., et al., (2009) Mol Ther 17, 796-802). Biotinylated NTM peptides and their constituent modules were prepared in the same manner, with biotin added to the amino terminus at the last step of synthesis. When necessary, a 5-7 hydrophilic amino acid tag was added to peptide modules to facilitate solubility. For i.p. administration, 200 μl aliquots containing 0.4 or 0.7 mg of cSN50.1 in saline was injected at 8 h or 12 h intervals. Alternatively, 10 mg cSN50.1 in 100 μl sterile H2O was administered subcutaneously from ALZET Osmotic Pumps (1007D) placed aseptically in interscapular areas. A bolus of 0.7 mg cSN50.1 in 100 μl saline was administered i.p. at weekly pump changes to assure steady NTM bioavailability. Dosage schedules were developed based on previous experimental protocols and half-life studies. Control mice received sterile saline in the same volumes as NTM. Importins pull-down assay. […] Beads were boiled for 10 min in SDS loading buffer, and protein content was analyzed by immunoblotting with a panel of anti-importins alpha and beta antibodies and anti-GAPDH (Abcam) as a cellular protein control. […]

[4] = biological target: T1, importin beta; test: Importins pull-down assay, HepG2 cell extract; format: binding; parameters: endogenous in cells; details: HepG2 cell extracts
Experimental: as §2

[5] = biological target: T2, GAPDH; test: Importins pull-down assay, Jurkat T cell extract, control protein; format: binding; parameters: endogenous in cells; details: biotinylated peptide, Jurkat T cell lysate pull-down
Experimental: (§3) Cell-penetrating peptide cSN50.1 (2986 Da) and other peptides listed in Table 1 were synthesized and prepared as previously described (Liu, D., et al., (2009) Mol Ther 17, 796-802). Biotinylated NTM peptides and their constituent modules were prepared in the same manner, with biotin added to the amino terminus at the last step of synthesis. When necessary, a 5-7 hydrophilic amino acid tag was added to peptide modules to facilitate solubility. For i.p. administration, 200 μl aliquots containing 0.4 or 0.7 mg of cSN50.1 in saline was injected at 8 h or 12 h intervals. Alternatively, 10 mg cSN50.1 in 100 μl sterile H2O was administered subcutaneously from ALZET Osmotic Pumps (1007D) placed aseptically in interscapular areas. A bolus of 0.7 mg cSN50.1 in 100 μl saline was administered i.p. at weekly pump changes to assure steady NTM bioavailability. Dosage schedules were developed based on previous experimental protocols and half-life studies. Control mice received sterile saline in the same volumes as NTM. Importins pull-down assay. […] Beads were boiled for 10 min in SDS loading buffer, and protein content was analyzed by immunoblotting with a panel of anti-importins alpha and beta antibodies and anti-GAPDH (Abcam) as a cellular protein control.

[6] = biological target: T1, importin beta; test: Nuclear Transport Modifier/importin beta competition binding assay; parameters: whole cell extract from unstimulated human Jurkat T cells; endogenous in cells; host or cells: human Jurkat T cells, whole-cell extract; details: free non-biotinylated peptide 0-300 μM, Jurkat T cell extract
Experimental: Non-biotinylated SN50 peptide (at 0, 10, 30, 100 or 300 μM concentrations) was incubated overnight with 1 mg of human Jurkat T cell whole-cell extract at 4° C. Simultaneously, biotinylated SN50 peptide (10 nmols) was immobilized on high capacity Neutravidin beads at 4° C. overnight, then washed 3 times with PBS and 1 time with binding buffer to remove unbound biotinylated SN50. Binding mixture was precleared by centrifugation (16,000×g for 30 min at 4° C.) and transferred to a fresh tube containing washed high capacity Neutravidin beads complexed with immobilized biotinylated SN50 peptide. Immunoblot analysis of importin beta bound to beads was performed as described in the importins pull-down assay.

[7] = test system: ldlr−/− mice fed a Western diet; test: Hyperlipidemia, fatty liver, hyperglycemia and weight gain in ldlr-/- mice fed a Western diet; format: in vivo, mouse
Experimental: as §3
Six week old B6.129S7-Ldlrtm1Her/J female mice were purchased from Jackson Laboratories. […] Blood chemistries were determined in fasting mouse plasma using an automated chemistry analyzer in the Vanderbilt Clinical Research Center. Total cholesterol and triglycerides in liver and cholesterol in feces were analyzed by standard methods in the Lipid Core Laboratory. […] Cryostat sections of livers were stained with Oil-red-O. Atherosclerotic lesions and macrophages were analyzed in the aortic root by staining with Oil-red-O and MOMA-2, respectively. Average lesion area was determined using Imaging System KS300 2.0.

[8] = Solubility of peptides; format: physicochemical
[9] = test system: ldlr−/− mice; test: General safety in ldlr-/- mice (blood cells, blood chemistries, infection); format: in vivo, mouse
Experimental: Six week old B6.129S7-Ldlrtm1Her/J female mice were purchased from Jackson Laboratories. Mice were fed a Western diet containing 21% milk fat and 0.15% cholesterol and maintained according to the guidelines for use and care of laboratory animals approved by the Vanderbilt University Institutional Animal Care and Use Committee. Mice and food were weighed at the beginning and end of each experiment. Blood chemistries were determined in fasting mouse plasma using an automated chemistry analyzer in the Vanderbilt Clinical Research Center. Total cholesterol and triglycerides in liver and cholesterol in feces were analyzed by standard methods in the Lipid Core Laboratory. Complete blood cell counts were performed in the Clinical Hematology Laboratory and flow cytometry analysis of lymphocytes subsets was. Cryostat sections of livers were stained with Oil-red-O. Atherosclerotic lesions and macrophages were analyzed in the aortic root by staining with Oil-red-O and MOMA-2, respectively. Average lesion area was determined using Imaging System KS300 2.0.

Compound: AAVALLPAVLLALLAPVQRKRQKLMP [SN50]
- interaction with importins alpha 1, 4, and 5 [1]: interacted
- interaction with importin beta [2]: interacted
- interaction with control protein GAPDH [3]: not with the control protein GAPDH
- interaction with importin beta [4]: interacted
- interaction with control cytoplasmic marker protein GAPDH [5]: not with the control cytoplasmic marker protein GAPDH
- inhibition of biotinylated SN50 binding to importin beta [6]: competitively inhibited

Compound: AAVALLPAVLLALLAPCVQRDEQKLMPC (disulfide 17-28 (inferred)) [cSN50.1 Beta]
- interaction with importins alpha 1, 4, and 5 [1]: did not react

Compound: CVQRKRQKLMPC (disulfide 1-12 (inferred)) [cN50.1]
- interaction with importins alpha 1, 4, and 5 [1]: maintain reactivity
- liver alanine and aspartate transaminases (ALT and AST) in plasma ([7]; 8 weeks): elevated levels
- results vs mice given saline ([7]; control peptide, plasma cholesterol and triglycerides): not different
- experimental endpoints (hypercholesterolemia) vs saline alone ([7]; non-cell penetrating control peptide in saline): did not differ significantly
- interaction with importin beta [2]: did not react

Compound: CSCC[C@@H]1NC(=O)[C@H](CC(C)C)NC(=O)[C@H](CCCCN)NC(=O)[C@H](CCC(N)=O)NC(=O)[C@H](CCCNC(=N)N)NC(=O)[C@H](CCCCN)NC(=O)[C@H](CCCNC(=N)N)NC(=O)[C@H](CCC(N)=O)NC(=O)[C@H](C(C)C)NC(=O)[C@H](Cc2ccc(O)cc2)NC(=O)[C@@H](NC(=O)[C@@H]2CCCN2C(=O)[C@H](C)NC(=O)[C@H](CC(C)C)NC(=O)[C@H](CC(C)C)NC(=O)[C@H](C)NC(=O)[C@H](CC(C)C)NC(=O)[C@H](CC(C)C)NC(=O)[C@@H](NC(=O)[C@H](C)NC(=O)[C@@H]2CCCN2C(=O)[C@H](CC(C)C)NC(=O)[C@H](CC(C)C)NC(=O)[C@H](C)NC(=O)[C@@H](NC(=O)[C@H](C)NC(=O)[C@H](C)N)C(C)C)C(C)C)CSSC[C@@H](C(=O)O)NC(=O)[C@@H]2CCCN2C1=O [cSN50] (H-AAVALLPAVLLALLAPCYVQRKRQKLMPC-OH; disulfide 17-29; N-terminus and C-terminus assumed)
- solubility ([8]; depending on the method of synthesis and purification, read-out: soluble at levels): 2 to 40 mg/mL (≈ 0.635 to 12.7 mM)

Compound: CSCC[C@@H]1NC(=O)[C@H](CC(C)C)NC(=O)[C@H](CCCCN)NC(=O)[C@H](CCC(N)=O)NC(=O)[C@H](CCCNC(=N)N)NC(=O)[C@H](CCCCN)NC(=O)[C@H](CCCNC(=N)N)NC(=O)[C@H](CCC(N)=O)NC(=O)[C@H](C(C)C)NC(=O)[C@@H](NC(=O)[C@@H]2CCCN2C(=O)[C@H](C)NC(=O)[C@H](CC(C)C)NC(=O)[C@H](CC(C)C)NC(=O)[C@H](C)NC(=O)[C@H](CC(C)C)NC(=O)[C@H](CC(C)C)NC(=O)[C@@H](NC(=O)[C@H](C)NC(=O)[C@@H]2CCCN2C(=O)[C@H](CC(C)C)NC(=O)[C@H](CC(C)C)NC(=O)[C@H](C)NC(=O)[C@@H](NC(=O)[C@H](C)NC(=O)[C@H](C)N)C(C)C)C(C)C)CSSC[C@@H](C(=O)O)NC(=O)[C@@H]2CCCN2C1=O [cSN50.1] (H-AAVALLPAVLLALLAPCVQRKRQKLMPC-OH; disulfide 17-28; N-terminus and C-terminus assumed)
- solubility ([8]; read-out: solubility): 100 mg/mL (≈ 33.5 mM)
- signs of infection or illness ([9]; 8 weeks of treatment): no overt signs of infection or illness
- blood cell populations and blood chemistries ([9]; mouse, in vivo): did not reveal any significant changes
- general susceptibility to environmental pathogens ([9]; mouse, in vivo): did not cause any apparent signs

Compound: VQRKRQKLMP (HOMO SAPIENS) [N50]
- interaction with importins alpha 1, 4, and 5 [1]: maintain reactivity
- interaction with importin beta [2]: did not react

Compound: AVLLALLAP (HOMO SAPIENS) [SSHR-2]
- interaction with importin beta [2]: importin beta-binding function
